Test results from PubChem BioAssay (NCI).
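Step 1: Grow cells in 96-well plates. Step 2: Expose to compound for 48 hours at 5 concentrations. Step 3: Interpolate endpoints linearly; if unreached, use highest concentration. TGI denotes the concentration required for complete inhibition of growth.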

Experiments:
Assay in all cases: inhibition of tumour cell growth, NCI panel, 48 h
[1] = system: MDA-MB-435
[2] = system: SK-MEL-5 melanoma
[3] = system: HL-60(TB) leukemia
[4] = system: NCI-H226 lung
[5] = system: T-47D breast
[6] = system: IGROV1 ovarian
[7] = system: HCT-116 colon
[8] = system: NCI-H522 lung
[9] = system: SW-620 colon
[10] = system: SK-OV-3 ovarian

`CC1(C)OC(=O)N(c2ccccc2)C12C=Cc1cccc([N+](=O)[O-])c1O2` (stereo not given) showed a TGI [1] of over 100 µM, a TGI [2] of over 100 µM and a TGI [3] of 58.7 µM. For the same molecule, the TGI [4] was over 100 µM, the TGI [5] was 94.9 µM and the TGI [6] was over 100 µM. For the same molecule, the TGI [7] was over 100 µM, the TGI [8] was over 100 µM and the TGI [9] was over 100 µM. It also gave a TGI [10] of 76.2 µM.

`O=C(O)CCSCc1ccccc1` showed a TGI [1] of over 100 µM, a TGI [2] of over 100 µM and a TGI [3] of over 100 µM. The TGI [4] was over 100 µM, the TGI [5] was over 100 µM and the TGI [6] was over 100 µM. The TGI [7] was over 100 µM, the TGI [8] was over 100 µM and the TGI [9] was over 100 µM. The TGI [10] was over 100 µM.

For `CC(=O)OCC1OC(n2c(-c3ccccc3)c(C(C)=O)c(-c3cccc4ccccc34)c(C#N)c2=S)C(OC(C)=O)C(OC(C)=O)C1OC(C)=O` (stereo not given), the TGI [1] was over 100 µM, the TGI [2] was over 100 µM and the TGI [3] was over 100 µM. For the same molecule, the TGI [4] was over 100 µM, the TGI [5] was over 100 µM and the TGI [6] was over 100 µM. The TGI [7] was over 100 µM, the TGI [8] was over 100 µM and the TGI [9] was over 100 µM. For the same molecule, the TGI [10] was over 100 µM.

`CC(C)=CCC/C(C)=C/CC/C(C)=C/CC/C(C)=C/CC/C(C)=C/CC/C(C)=C/CC/C(C)=C/CC/C(C)=C/CC/C(C)=C/CO` gave a TGI [1] of over 100 µM, a TGI [2] of over 100 µM and a TGI [3] of over 100 µM. For the same molecule, the TGI [4] was over 100 µM, the TGI [5] was over 100 µM and the TGI [6] was over 100 µM. The TGI [7] was over 100 µM, the TGI [8] was over 100 µM and the TGI [9] was over 100 µM. For the same molecule, the TGI [10] was over 100 µM.
